Assays:
[1] = tested on: MELOE-1, HLA A*0201 restricted CD8 T cell clone
[2] = tested on: CD4+ T cells restimulated with MELOE-113-27; experiment: Immunization of transgenic mice with SLP, ex vivo CD4 ELISpot-IFN-g; format: in vivo, HLA-DRB1*0101/HLA-A*0201 transgenic mice; settings: immunized mice, FIG. 7C
Description: (§1) HLA-DRB1*0101/HLA-A*0201 transgenic mice (A2/DR1 mice) were used to evaluate immunogenicity of peptides. Group of 5 female A2/DR1 mice (6 to 10 weeks) were immunized subcutaneously with 100 μg of each peptides emulsified in incomplete Freund adjuvant (v/v) plus 50 μg of polyI:C. At day 14 and day 28 boost vaccinations were performed with 50 μg of each peptide along with the same adjuvants. All experiments were carried out according to the good laboratory practices defined by the animal experimentation Rules in France.
Specific immune responses were evaluated 10 days after the last boost by ELISpot-IFN-g (Diaclone, France). […] Ex vivo CD4 T cell responses were evaluated on the CD8 negative fraction as above with the HLA-DRB1*0101-restricted epitope MELOE-113-27. […] Spot-forming cells were counted using the «C.T.L. Immunospot» system (Cellular Technology Ltd). […]
Finally, we explored the immunogenicity of our SLP in vivo in HLA-DRB1*0101/HLA-A*0201 transgenic mice. […] We focused on cross-presentation and thus assessed CD8 T cell responses by ELISpot-IFN-g after re-stimulation with the short MELOE-1136-44 epitope (SEQ ID NO:31) or with medium alone. […] In contrast, CD4 responses evaluated ex vivo towards the HLA-DRB1*0101 epitope were very low (FIG. 7C).

[3] = tested on: SARC-A2-MELOE-1 cells; experiment: Anti-tumor vaccination with aSLP; format: in vivo, A2/DR1 mice; settings: day 36, threshold 50 mm^2; prime 100 μg day 6 plus adjuvant, boost 14 days later; 0/7 in untreated, p=0.0513
Description: The SARC-L1 cell line which spontaneously occurred in A2/DR1 mice was genetically modified to over-express HLA-A*0201 as previously described (Rangan et al Oncotarget, 2017). SARC-A2 cells were then transduced with a gammaretroviral dicistronic vector encoding the whole MELOE-1 antigen and, downstream of an IRES element, a puromycin N-acetyltransferase allowing selection of the transduced cells with puromycin (5 μg/mL). HLA-A*0201 expression was checked by flow cytometry. The capacity of the MELOE-1-transduced SARC-A2 (SARC-A2-MELOE-1) cells to present the A2-restricted MELOE-1 epitope was confirmed by their recognition by an HLA-A*0201-restricted T cell clone (data not shown).
A2/DR1 mice were subcutaneously injected with 2×10^5 SARC-A2-MELOE-1 cells in 100 μl in the right flank. The first vaccination with aSLP (100 μg in IFA, as above) or adjuvant alone or PBS started when tumor became detectable (around 10 mm2). […] Tumor growth was evaluated twice a week using a caliper and mice were euthanized when their tumor exceeded 300 mm^2. The efficiency of anti-tumor vaccination was evaluated by Fisher's exact test (α=0.5%).
To evaluate the anti-tumor potential of vaccination with aSLP, we used the previously described SARC-A2 cell line transduced with a cDNA encoding the whole MELOE-1 antigen. […] Mice were monitored until the end point at day 36. […]

[4] = tested on: CD8+ splenocytes restimulated with MELOE-136-44; experiment: Immunization of transgenic mice with SLP, CD8 ELISpot-IFN-g; format: in vivo, HLA-DRB1*0101/HLA-A*0201 transgenic mice; settings: INFg-ELIspot; positive if spots more than twice background and above ten; s.c. 100 μg prime, 50 μg boosts, IFA + polyI:C; FIG. 7A/B
Description: CD8+ splenocytes from immunized mice were tested by INFg-ELIspot following restimulation with the short epitope MELOE-136-44. Mice were considered positive if the number of spots after restimulation were more than twice the background level and above ten spots.
as §1
Specific immune responses were evaluated 10 days after the last boost by ELISpot-IFN-g (Diaclone, France). Briefly, freshly isolated splenocytes or CD8 positive T cells from spleen (CD8+ T Cell Isolation Kit, Miltenyi Biotec) were incubated (2.105 cells per well) during 15-20 hours in ELISpot plate in the presence of the class I MELOE-1 epitope (5 μg/ml final) or medium (X-vivo, as negative control) or PMA-ionomycin (positive control). Ex vivo CD4 T cell responses were evaluated on the CD8 negative fraction as above with the HLA-DRB1*0101-restricted epitope MELOE-113-27. […] Spot-forming cells were counted using the «C.T.L. Immunospot» system (Cellular Technology Ltd). Results were considered positive when the ELISPOT counts were >10 spots and above 2× the background (medium). (Dosset et al Clin Cancer Res, 2012)
Finally, we explored the immunogenicity of our SLP in vivo in HLA-DRB1*0101/HLA-A*0201 transgenic mice. Mice were immunized subcutaneously with 100 μg of SLP in IFA and poly I:C and boosted at D14 and D28 with 50 μg of SLP with the same adjuvants (see M&M). We focused on cross-presentation and thus assessed CD8 T cell responses by ELISpot-IFN-g after re-stimulation with the short MELOE-1136-44 epitope (SEQ ID NO:31) or with medium alone. A mouse was considered responder when ELIspots were above 10 and at least twice about background. A typical experiment is presented in FIG. 7 comparing immunization with SLP containing MELOE-113-27 (SEQ ID NO:21) and MELOE-136-44 (SEQ ID NO:31) with linker GGGG (SEQ ID NO:160) or LLSVGG (SEQ ID NO:9). Immunization with SLP containing GGGG (SEQ ID NO:160) generated moderate CD8 responses in 3 out of five mice while immunization with SLP with LLSVGG (SEQ ID NO:9) was efficient in all 5 mice with two mice showing robust CD8 responses. Previous experiments performed with the shorter linkers LLSV (SEQ ID NO:4) or LLSVG (SEQ ID NO:8) also supported the hypothesis that our synthetic linkers favored cross-presentation when compared to either the linker GGGG or the native sequence (Table 4). In contrast, CD4 responses evaluated ex vivo towards the HLA-DRB1*0101 epitope were very low (FIG. 7C).

Fold change = EC50 (M) of MELOE-111-46/EC50 (M) SLP ([1]; SLP MELOE-113-27 xxxx MELOE-136-44, TNF-a response of CD8 T cell clone to SLP-loaded DC, range over independent experiments): 12-56
Sequence: TSREQFLPSEGAACPPWLLSVGGTLNDECWPASL (Synthetic SLP) [SEQ ID NO: 87]
cross-presentation compared with full length MELOE-1 / native antigen (in words) ([1]; full length MELOE-1 as reference): the most efficiently processed and cross-presented
CD4 responses evaluated ex vivo towards the HLA-DRB1*0101 epitope [2]: very low
mice in which tumor growth was inhibited [3]: 4/8
CD8 responses, positive mice, Exp#3 [4]: 5/5

— patent publication US12144851B2, “Vaccinal strategy” (INSERM (INSTITUT NATIONAL DE LA SANTÉ ET DE LA RECHERCHE …, priority 2018, dated 2024)
